From US10501449B2 (priority 2018, dated 2019)

molecular target: hROMK (human Kir1.1) (Homo sapiens (Human), UniProt P48048); assay: cell-based; conditions: CHO T-Rex hROMK stable cell line; thallium flux; 10-point concentration response curve; read-out: Human ROMK Th Flux IC50
Sequence (P48048 whole entry): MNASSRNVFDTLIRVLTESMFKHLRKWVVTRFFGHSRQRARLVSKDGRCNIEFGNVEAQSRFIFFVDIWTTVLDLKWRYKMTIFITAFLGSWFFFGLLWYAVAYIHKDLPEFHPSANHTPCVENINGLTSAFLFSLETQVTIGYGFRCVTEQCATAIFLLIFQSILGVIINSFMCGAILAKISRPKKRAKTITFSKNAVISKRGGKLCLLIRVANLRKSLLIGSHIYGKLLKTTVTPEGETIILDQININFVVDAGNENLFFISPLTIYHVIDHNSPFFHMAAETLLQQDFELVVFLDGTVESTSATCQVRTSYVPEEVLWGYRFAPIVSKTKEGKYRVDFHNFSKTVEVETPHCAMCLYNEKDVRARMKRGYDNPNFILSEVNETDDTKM

Q: For `COc1c(CN2CCN[C@H](c3ccc4c(c3C)COC4=O)C2)cnn1-c1ccc2oc(=O)n(C)c2c1` [Example 54-I, (R)-5-(5-methoxy-4-((3-(4-methyl-1-oxo-1,3-dihydroisobenzofuran-5-yl)piperazin-1-yl)methyl)-1H-pyrazol-1-yl)-3-methylbenzo[d] oxazol-2(3H)-one], which IC50 is on record?
A: 110 nM

Q: How did the IC50 turn out when `Cc1cc(-c2ncc(C(=O)N3CCO[C@H](c4ccc5c(c4C)COC5=O)C3)s2)ncc1C#N` [Example 33-I, (R)-4-methyl-6-(5-(2-(4-methyl-1-oxo-1,3-di-hydroisobenzofuran-5-yl)morpholine-4-carbonyl)thiazol-2-yl) nicotinonitrile] was run?
A: 690 nM

Q: For `Cc1c(C2CN(Cc3cnn(-c4ccc5oc(=O)n(C)c5c4)c3)CCC2(F)F)ccc2c1COC2=O` (stereo not drawn) [Example 4, 5-(4-((4,4-difluoro-3-(4-methyl-1-oxo-1,3-dihydroisobenzofuran-5-yl)piperidin-1-yl)methyl)-1H-pyrazol-1-yl)-3-methylbenzo[d]oxazol-2(3H)-one], which IC50 is on record?
A: 640 nM

Q: Which IC50 does the source give for `COc1cc(-n2cnc(CN3CC[C@@H](O)[C@H](c4ccc5c(c4C)COC5=O)C3)c2)ccc1C#N` [Example 162-I, 4-(4-(((3R,4R)-4-hydroxy-3-(4-methyl-1-oxo-1,3-dihydroisobenzofuran-5-yl)piperidin-1-yl)methyl)-1H-imidazol-1-yl)-2-methoxybenzonitrile] here?
A: 260 nM

Q: Which IC50 does the source give for `Cc1cc(-n2cc(CN3CCC(F)(F)C(c4ccc5c(c4C)COC5=O)C3)cn2)ncc1C#N` (stereo not drawn) [Example 5, 6-(4-((4,4-difluoro-3-(4-methyl-1-oxo-1,3-dihydroisobenzofuran-5-yl)piperidin-1-yl)methyl)-1H-pyrazol-1-yl)-4-methylnicotinonitrile] here?
A: 270 nM

Q: Which IC50 does the source give for `Cc1cn(-c2cc(C(F)(F)F)c(CN3CCN[C@H](c4ccc5c(c4C)COC5=O)C3)cn2)cn1` [Example 147-I, (R)-4-methyl-5-(4-((6-(4-methyl-1H-imidazol-1-yl)-4-(trifluoromethyl)pyridin-3-yl)methyl)piperazin-2-yl)isobenzofurna-1(3H)-one] here?
A: 87 nM

Q: How did the IC50 turn out when `Cc1c([C@@H]2CN(Cc3ccc(-c4ccc(=O)n(C)n4)nc3)C[C@H](C)N2)ccc2c1COC2=O` [Example 120-I, 2-methyl-6-(5-(((3S,5R)-3-methyl-5-(4-methyl-1-oxo-1,3-dihydroisobenzofuran-5-yl)piperazin-1-yl)methyl)pyridin-2-yl)pyridazin-3(2H)-one] was run?
A: 160 nM

Q: For `Cc1cc(-n2ccc(CN3CCO[C@H](c4ccc5c(c4C)COC5=O)C3)n2)ncc1C#N` [Example 53-I, (R)-4-methyl-6-(3-((2-(4-methyl-1-oxo-1,3-dihydroisobenzofuran-5-yl)morpholino)methyl)-1H-pyrazol-1-yl) nicotinonitrile], which IC50 is on record?
A: 370 nM

Q: `Cc1c([C@@H]2CN(Cc3cnc(-c4ccc5oc(=O)n(C)c5c4)s3)CCO2)ccc2c1COC2=O` [Example 19-I, (R)-3-methyl-5-(5-((2-(4-methyl-1-oxo-1,3-dihydroisobenzofuran-5-yl)morpholino)methyl)thiazol-2-yl)benzo[d]oxazol-2(3H)-one] was tested. Which IC50 did it give?
A: 180 nM

Q: Which IC50 does the source give for `Cc1cc(-c2nnc(CN3CCO[C@H](c4ccc5c(c4C)COC5=O)C3)o2)ncc1C#N` [Example 30-I, (R)-4-methyl-6-(5-((2-(4-methyl-1-oxo-1,3-dihydroisobenzofuran-5-yl)morpholino)methyl)-1,3,4-oxadiazol-2-yl) nicotinonitrile] here?
A: 260 nM

Q: For `COc1cc(-n2cc(CN3CCN[C@H](c4ccc5c(c4C)COC5=O)C3)cn2)cc2c1oc(=O)n2C` [Example 56-I, (R)-7-methoxy-3-methyl-5-(4-((3-(4-methyl-1-oxo-1,3-dihydroiso-benzofuran-5-yl)piperazin-1-yl)methyl)-1H-pyrazol-1-yl)benzo[d] oxazol-2(3H)-one], which IC50 is on record?
A: 150 nM

Q: `COc1cc(N2CC(CN3C[C@@H](c4ccc5c(c4C)COC5=O)N[C@@H](C)C3)CC2=O)ccn1` (stereo partly drawn) [Example 254-I, 1-(2-methoxypyridin-4-yl)-4-(((3S,5R)-3-methyl-5-(4-methyl-1-oxo-1,3-dihydroisobenzofuran-5-yl)piperazin-1-yl)methyl)pyrrolidin-2-one] was tested. Which IC50 did it give?
A: 1600 nM
